Data: PubChem BioAssay (NCI)
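Growth conditions: 96-well plates. Treatment: test compound, 48 hours, 5 concentrations. Analysis: linear interpolation between bracketing concentrations; unreached endpoints set to highest concentration. GI50 = concentration required for 50% inhibition of growth. TGI is the concentration that stops growth completely.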

Experiments:
Test in all cases: NCI-60 cell line screen, 48 h
SW-620 colon = system: SW-620 colon
OVCAR-8 ovarian = system: OVCAR-8 ovarian
COLO 205 colon = system: COLO 205 colon
MDA-MB-231 breast = system: MDA-MB-231 breast
SF-268 CNS = system: SF-268 CNS
KM12 colon = system: KM12 colon
SNB-75 CNS = system: SNB-75 CNS
UO-31 renal = system: UO-31 renal
SF-295 CNS = system: SF-295 CNS
HS 578T breast = system: HS 578T breast

| Structure (SMILES) | GI50 (SW-620 colon) [µM] | TGI (SW-620 colon) [µM] | GI50 (OVCAR-8 ovarian) [µM] | TGI (OVCAR-8 ovarian) [µM] | GI50 (COLO 205 colon) [µM] | TGI (COLO 205 colon) [µM] | GI50 (MDA-MB-231 breast) [µM] | TGI (MDA-MB-231 breast) [µM] | GI50 (SF-268 CNS) [µM] | TGI (SF-268 CNS) [µM] | GI50 (KM12 colon) [µM] | TGI (KM12 colon) [µM] | GI50 (SNB-75 CNS) [µM] | TGI (SNB-75 CNS) [µM] | GI50 (UO-31 renal) [µM] | TGI (UO-31 renal) [µM] | GI50 (SF-295 CNS) [µM] | TGI (SF-295 CNS) [µM] | GI50 (HS 578T breast) [µM] | TGI (HS 578T breast) [µM] |
| --- | --- | --- | --- | --- | --- | --- | --- | --- | --- | --- | --- | --- | --- | --- | --- | --- | --- | --- | --- | --- |
| NNC(=S)N/N=C/c1ccccn1 | 3.89 | > 100 | 2.28 | > 100 | 2.39 | > 100 | 0.699 | > 100 | 1.58 | > 100 | 2.62 | > 100 | 1.72 | 11.4 | 3.99 | > 100 | 3.06 | > 100 | 3.86 | > 100 |
| CC(=O)N[C@@H](Cc1ccc(OP(=O)(O)O)cc1)C(=O)N[C@H]1CCC(=O)N2CCC[C@@H](C(=O)NCc3cccc4ccccc34)N2C1=O | > 25 | > 25 | > 25 | > 25 | > 25 | > 25 | > 25 | > 25 | > 25 | > 25 | > 25 | > 25 | > 25 | > 25 | > 25 | > 25 | > 25 | > 25 | > 25 | > 25 |
| O=C(O)c1cc(C(=O)C(=O)c2cc(C(=O)O)c(O)c3ccccc23)c2ccccc2c1O |  | > 100 |  | > 100 |  | > 100 |  | > 100 |  | > 100 |  | > 100 |  | > 100 |  | > 100 |  | > 100 |  | > 100 |
| OC1CCC(COC(c2ccccc2)(c2ccccc2)c2ccccc2)O1 (stereo not given) |  | 37.2 |  | 35.8 |  | 30.8 |  | 32.1 |  | 33.6 |  | 34.3 |  | 26.5 |  | 33.2 |  | 31.8 |  | 35.7 |
| COc1c(O)cc2c(c1CC=C(C)C)OC(=O)c1c(cc(O)c(CC=C(C)C)c1O)O2 | 3.42 | 7.05 | 4.47 | 8.71 | 4.51 | 8.45 | 4.23 | 8.46 | 4.26 | 7.82 | 4.12 | 7.71 | 3.09 | 6.45 | 4.22 | 7.79 | 4.32 | 8.13 | 2.96 | 7.4 |
| COc1cc2c3c(n(CCCNC(C)(C)CO)c(=O)c2cc1OC)-c1cc2c(cc1C3=O)OCO2 | 0.25 | 19 | 1.18 | 22.4 | 12.8 | > 67.5 | 1.23 | 7 | 3.81 | 56.6 | 2.19 | > 100 | 2.58 | 44 | 1.96 | > 55.4 | 0.214 | 49.1 | 24.5 | 80.7 |
| COc1ccc(/C=C/C(=O)c2ccc(B(O)O)cc2)cc1O | 3.83 | 22 | 28.3 | > 77.9 | 16.2 | 32 | 20.2 | > 85 | 19.9 | 78.8 | 3.96 | 15 | 9.9 | 31.2 | 16.7 | > 92.8 | 15.1 | 56.5 | 12.6 | > 100 |
